Values quoted from earlier work as cited in patent US20210137108A1, “REDUCED INHALATION HAZARD OF QUATERNARY AMMONIUM COMPOUNDS-PH DRIVEN PHYSIOLOGICAL RESPONSE” (priority 2016, published 2021).
Where two headings read alike, the source gives them in different places.

Columns and labels:
rats = system: rats; parameters: key: L is lethal dose; S indicates survival
[1] = system: lung biomarkers, Clara cells, blood-air barrier; conditions: inhalation exposure at 35 mg per cubic meter
[2] = rats

Molecule | lethal dose / survival (rats; i.a., dose 15-20 mg/kg) | lethal dose / survival (rats; i.v., dose 15-20 mg/kg) | lethal dose / survival (rats; p.o., dose 250 mg/kg) | lethal dose / survival (rats; p.o., dose 1250 mg/kg) | pKa | lethal dose / survival (rats; i.a., dose 100-150 mg/kg) | lethal dose / survival (rats; i.v., dose 100-150 mg/kg) | Clara cells and CC16 protein concentration [1] | changes in lung biomarker levels [1] | inflammatory response and blood-air barrier [1] | influx of proteins from blood vessels and alveolar space [1] | concentrations in the lungs and kidneys compared to levels observed in the liver and tissue [2]
N=C(NCCCCCCNC(=N)NC(=N)Nc1ccc(Cl)cc1)NC(=N)Nc1ccc(Cl)cc1.O=C(O)[C@H](O)[C@@H](O)[C@H](O)[C@H](O)CO.O=C(O)[C@H](O)[C@@H](O)[C@H](O)[C@H](O)CO [Chlorhexidine gluconate] | L | L | S | S and (poor) | – | – | – | – | – | – | – | –
NS(=O)(=O)O [Sulfamic Acid] | – | – | – | – | 1 | – | – | – | – | – | – | –
Alkyldiaminoethylglycine | S | S | S | L | – | L | L | – | – | – | – | –
Benzalkonium Chloride | L | L | S | L | – | – | – | Damage to Clara cells and a reduced concentration in CC16 protein | significant changes | strong inflammatory response and damage to the blood-air barrier | massive influx of proteins | several times higher
Soidum dodecylbenzensulfonate | S | S | S | L | – | L | L | – | – | – | – | –
